From US20240115537A1, “COMPOSITION FOR PREVENTING OR TREATING BREAST CANCER COMPRISING COMPOUND DERIVED FROM DENDROPANAX MORBIFERUS” (JEJU NATIONAL UNIVERSITY INDUSTRY-ACADEMIC COOPERATION …, priority 2022, published 2024) come the findings set out here.

Experiment [1] deals with MCF-7 cells. Put plainly: Cell proliferation / viability assay (EZ-Cytox). Format: cell-based. The note with it: Homo sapiens, MCF7, A of FIG. 6, read-out: IC50 (drug concentration required for 50% growth reduction in a survival curve). How it is done:
Human breast cancer cell lines, MDA-MB-231 and MCF-7 cells, were purchased from the Korea Cell Line Bank and cultured in an incubator with an atmospheric environment of 5% CO2 and a Dulbecco's Modified Eagle's Medium (DMEM) containing 10% fetal bovine serum (Corning, Glendale, AZ, USA) and 1% penicillin/streptomycin.
MCF-7 cells (1.5×10^6 cells/plate) and MDA-MB-231 cells (1.0×10^6 cells/plate) were seeded into a 96-well plate for 24 hours and incubated with dihydroconiferyl ferulate (0, 10, 25, 50, 75, 100, 150, and 200 μM). Thereafter, cell viability was examined using the EZ-Cytox Plus Kit (DoGenBio, Seoul, Korea) according to the manufacturer's protocol. OD450 values were measured using a VERSAmax ELISA reader (Molecular Device, San Jose, CA, USA).
Breast cancer cells MCF-7 and MDA-MB-231 were treated with dihydroconiferyl ferulate, a compound purified from the leaves of Dendropanax morbiferus H.Lev at various concentrations to test an antiproliferative effect, and an experimental method was described in Experimental Example 3.

Experiment [2] concerns CD44high/CD24low population of MDA-MB-231 cells. Put plainly: CD44+/CD24- flow cytometry. Format: cell-based, human. The note with it: 50 μM, 24 hours, control 80.8%. How it is done:
MDA-MB-231 cancer cells (1.5×10^6 cells) were cultured in a 6-well plate for 24 hours and treated with DMSO as a control group or dihydroconiferyl ferulate (50 μM) for 24 hours. Thereafter, the cells isolated into single cells were incubated with an anti-human CD44 antibody (FITC-conjugated) and an anti-human CD24 antibody (PE-conjugated) (BD) at 4° C. for 45 minutes. After washing with 1×PBS, CD44^+/CD24^− cells were examined using a flow cytometer Accuri C6 machine (BD San Jose, CA, USA).
CD44^+/CD24^−, a representative marker of breast cancer stem cells, was associated with stem cell-like activity in breast cancer, and since CD44^+/CD24^− MDA-MB-231 cells show higher tumorigenesis and metastasis than CD44−/CD24^+ MDA-MB-231 cells, MDA-MB-231 cells were treated with dihydroconiferyl ferulate, and then changes in the CD44^high/CD24^low population were measured, and the experimental method was described in Experimental Example 5.

Each structure is given as a SMILES string. pIC50: −log10 of the molar value.

For the compound `COc1cc(/C=C/C(=O)OCCCc2ccc(O)c(OC)c2)ccc1O` [dihydroconiferyl ferulate], in experiment [1], the pIC50 is 3.95. Moreover, in experiment [2], the CD44high/CD24low population worked out at 34.0%.
